Results from PubChem BioAssay (NCI).
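Briefly, cells in 96-well plates were exposed to five compound concentrations for 48 h, and endpoints were estimated by linear interpolation. Abbreviation: GI50, concentration required for 50% inhibition of growth. TGI is the concentration that stops growth completely.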

Legend:
Experiment in all cases: inhibition of tumour cell growth, NCI panel, 48 h
CAKI-1 renal = system: CAKI-1 renal
HOP-62 NSCLC = system: HOP-62 NSCLC
HT29 colon = system: HT29 colon
KM12 colon = system: KM12 colon
OVCAR-8 ovarian = system: OVCAR-8 ovarian
SK-MEL-5 melanoma = system: SK-MEL-5 melanoma
SK-OV-3 ovarian = system: SK-OV-3 ovarian
SNB-75 CNS = system: SNB-75 CNS
U251 CNS = system: U251 CNS
HL-60(TB) leukemia = system: HL-60(TB) leukemia

| SMILES | TGI (CAKI-1 renal) [µM] | TGI (HOP-62 NSCLC) [µM] | TGI (HT29 colon) [µM] | TGI (KM12 colon) [µM] | TGI (OVCAR-8 ovarian) [µM] | TGI (SK-MEL-5 melanoma) [µM] | TGI (SK-OV-3 ovarian) [µM] | TGI (SNB-75 CNS) [µM] | TGI (U251 CNS) [µM] | TGI (HL-60(TB) leukemia) [µM] | GI50 (HL-60(TB) leukemia) [µM] | GI50 (HOP-62 NSCLC) [µM] | GI50 (HT29 colon) [µM] | GI50 (KM12 colon) [µM] | GI50 (OVCAR-8 ovarian) [µM] | GI50 (SK-MEL-5 melanoma) [µM] | GI50 (SK-OV-3 ovarian) [µM] | GI50 (SNB-75 CNS) [µM] | GI50 (U251 CNS) [µM] | GI50 (CAKI-1 renal) [µM] |
| --- | --- | --- | --- | --- | --- | --- | --- | --- | --- | --- | --- | --- | --- | --- | --- | --- | --- | --- | --- | --- |
| CCCCn1cnc2c(SC)ncnc21 | > 100 | > 100 | > 100 | > 100 | > 100 | > 100 | > 100 | > 100 | > 100 | – | – | – | – | – | – | – | – | – | – | – |
| COc1nc2nccc-2c2occn12 | > 100 | > 100 | > 100 | > 100 | > 100 | > 100 | > 100 | > 100 | > 100 | – | – | – | – | – | – | – | – | – | – | – |
| NC(=O)N1N=C2c3ccccc3SC[C@H]2[C@@H]1c1ccccc1 | – | 65.6 | 38 | – | 65.9 | 21.8 | – | – | 50.4 | 55 | – | – | – | – | – | – | – | – | – | – |
| O=C(CSC(=S)N1CCOCC1)Nc1nc2c(s1)CCCC2 | – | > 100 | > 100 | > 100 | > 100 | > 100 | > 100 | > 100 | > 100 | > 100 | – | – | – | – | – | – | – | – | – | – |
| CCOC(=O)C(=O)Nc1c(C)cccc1C | > 100 | > 100 | > 100 | > 100 | > 100 | – | > 100 | > 100 | > 100 | – | – | – | – | – | – | – | – | – | – | – |
| C=C1C(=O)O[C@H]2[C@H]1CC/C(COC(=O)N1CCC[C@H]1C(=O)Nc1ccc(OC)c(C(N)=O)c1O)=C\CC[C@@]1(C)O[C@@H]21 | – | 30.2 | 11.1 | 20 | 26 | 14.2 | 65.6 | 14.9 | 20.9 | 4.83 | 1.59 | 12.8 | 3.24 | 5.53 | 4.73 | 3.48 | 20.9 | 2.67 | 6.76 | – |
| CC12CCC(=O)C=C1CCC1C2C(O)CC2(C)C(c3csc(N)n3)CCC12 (stereo not given) | > 100 | > 100 | > 100 | > 100 | > 100 | > 100 | > 100 | > 100 | > 100 | – | – | – | – | – | – | – | – | – | – | – |
| CC(=O)OCC1OC(n2ccc(=O)[nH]c2=O)C(OC(C)=O)C1OC(C)=O (stereo not given) | > 100 | > 100 | > 100 | > 100 | > 100 | > 100 | > 100 | > 100 | > 100 | – | – | > 100 | > 100 | > 100 | > 100 | > 100 | > 100 | > 100 | > 100 | > 100 |
| COC(=O)c1csc(-c2nc(CCNC(=O)OC(C)(C)C)sc2Br)n1 | – | > 100 | > 100 | > 100 | > 100 | > 100 | > 100 | > 100 | > 100 | > 100 | – | – | – | – | – | – | – | – | – | – |
| C=C(C)C(=O)O[C@H]1[C@H]2[C@H](OC(=O)[C@H]2C)[C@H](O)[C@@H](C)[C@@H]2C=CC(=O)[C@]21C | 5.66 | 34.1 | 10.7 | 7.38 | 4.07 | 20.2 | 18.3 | – | 12.1 | 2.86 | – | – | – | – | – | – | – | – | – | – |
| COc1ccc2c(c1)OC(N(C(C)=O)C(C)=O)=C(C#N)C2c1ccc(F)cc1 (stereo not given) | – | > 100 | 18 | > 100 | > 100 | 18.3 | > 100 | > 100 | 54.8 | 2.53 | 0.496 | 1.7 | 2.55 | 0.664 | 3.92 | 1.98 | 2.47 | 1.28 | 1.82 | – |
| COc1cc(CNc2ccc(C(C)C)cc2)cc(OC)c1OC | 45.1 | 55.1 | 33.3 | 34.9 | 73.4 | 27.9 | 46.2 | 70.5 | 29.7 | – | – | – | – | – | – | – | – | – | – | 16.9 |
| Nc1nc2c(c(=O)[nH]1)CN(c1ccc(S(N)(=O)=O)cc1)CN2 | > 100 | > 100 | > 100 | > 100 | > 100 | > 100 | – | – | > 100 | – | – | – | – | – | – | – | – | – | – | – |
| O=C(O)c1cc(=O)c2[nH]c3ccccc3c2s1 | > 100 | > 100 | – | > 100 | > 100 | > 100 | > 100 | > 100 | – | > 100 | – | – | – | – | – | – | – | – | – | – |
| O=C1CC[C@@H](S(=O)(=O)c2ccccc2)[C@@H](/C=C/c2ccccc2)O1 | – | > 100 | > 100 | > 100 | > 100 | > 100 | > 100 | > 100 | > 100 | > 100 | – | – | – | – | – | – | – | – | – | – |
| CC(C)NC(=O)OCCS(=O)c1c(Cl)c(Cl)nn1C (stereo not given) | > 100 | > 100 | > 100 | > 100 | – | > 100 | > 100 | > 100 | > 100 | > 100 | – | – | – | – | – | – | – | – | – | – |
| CCOP(=O)(OCC)C(NC(c1ccccc1)c1ccccc1)c1cccc2ccccc12 (stereo not given) | 14.5 | – | – | 23 | > 100 | 32.2 | – | – | – | > 100 | 14.1 | – | – | 5.32 | 6.14 | 14.9 | – | – | – | 4.09 |
| CC(=O)O[C@@H]1CC2C(C)(C)CCCC2(C)C2=C1C(=O)C(C(C)C)=CC2=O (stereo not given in full) | 2.63 | 4.13 | 5.54 | 2.68 | 15.9 | 1.84 | 8.5 | – | > 100 | 4.28 | 0.744 | 1.77 | 2.03 | 1.14 | 2.64 | 0.581 | 3.26 | – | 2.35 | 1.03 |
| COc1cc(-c2cn(-c3ccc(Cl)cc3)c(C)c2C(=O)C(F)(F)F)cc(OC)c1OC | > 100 | > 100 | > 100 | > 100 | > 100 | > 100 | > 100 | > 100 | > 100 | – | – | > 100 | 73.2 | > 100 | > 100 | 7.18 | > 100 | 56.9 | > 100 | > 100 |
| CC(=O)n1c2ccccc2c2nc3nc(Oc4ccc(C)cc4)c4ccccc4c3cc21 | > 100 | > 100 | > 100 | > 100 | > 100 | > 100 | > 100 | > 100 | > 100 | – | – | – | – | – | – | – | – | – | – | – |
